From patent US9399070B2, “Compositions comprising a polymeric reagent and a pharmacologically active agent” (Nektar Therapeutics, priority 2003, dated 2016)

What was measured:
NB2-11 cells = assay: NB2-11 rat lymphoma cell proliferation assay; conditions: in vitro; based on determined protein content; unmodified hGH = 100% bioactivity; preliminary
Description: The biological activity of hGH and the conjugates described in Table 1 was assessed in vitro using an NB2-11 rat lymphoma cell proliferation assay. Briefly, NB2-11 cells derived from a rat lymphoma were incubated with hGH, which leads to binding of the hGH molecule to its receptor on the cell surface. Receptor binding induces the signal transduction cascade, which results in proliferation of the cells. Assay results were based on determined protein content, and a 100% bioactivity of unmodified hGH.

hypophysectomized rat = assay: in vivo bioassay, weight gain in hypophysectomized rat (USP monograph for Somatotropin); conditions: for increase of weight (day 8): single high dose of 110 μg on day 1, day 8
Description: Conjugates 1M and 1D were further evaluated in a preliminary in vivo bioassay (hypophysectomized rat, USP monograph for Somatotropin®). Six groups of each of five animals received either hGH, 1M, 1D, or placebo in different dosing regimes. Weight gain as a pharmacodynamic output was measured on day 1, 3, 6, and 8.
The results of the experiment are summarized in FIG. 4 (weight gain following day 8) and FIG. 5 (weight gain over time course of study). […] Daily dosing of 5 μg of the hGH standard induced an overall weight gain of 4% on day 8, whereas the single high dose of 110 μg of 1M and ID produced an increase of weight of 7% and 9% respectively (FIG. 4).

Question: For “mono(mPEG-2-ButyrALD-40k) hGH [Sample 4M]”, which “Activity, %” value (NB2-11 cells) is on record?
Answer: 2.5%

Question: With mono(mPEG-2-NHS-40k) hGH [Sample 1M] as the substance, how does the “increase of weight (day 8)” value (hypophysectomized rat) read?
Answer: 7%

Question: What does the source list for “hGH: Native, recombinant human growth hormone, unmodified”?
Answer: overall weight gain on day 8 (hypophysectomized rat; daily dosing of 5 μg (cumulative 35 μg), day 8): 4%; weight gain during the eight days (hypophysectomized rat; single high dose (110 μg, day 1)): no or moderate weight gain

Question: For di(mPEG-2-ButyrALD-40k) hGH [Sample 4D], which “Activity, %” value (NB2-11 cells) is on record?
Answer: 0.2%

Question: What does the source list for di(mPEG-2-NHS-40k) hGH [Sample 1D]?
Answer: animal death in study group (hypophysectomized rat; 1D bolus group, single dose 110 μg, five animals per group): death of one animal; increase of weight (day 8) (hypophysectomized rat): 9%; Activity, % (NB2-11 cells): 0.4%
